The values below come from US8735412B2, “Sulfoximine-substituted anilinopyrimidine derivatives as CDK inhibitors, the production thereof, and use as medicine” (Bayer Intellectual Property GmbH, priority 2008, dated 2014).

The subject of data set [1] is HeLa-MaTu human cervical carcinoma xenograft. The data set is described as follows: HeLa-MaTu cervical tumor xenograft model on NMRI nude mice. It is filed as in vivo. As to conditions: oral. The protocol: HeLa-MaTu (EPO-GmbH, Berlin) human cervical carcinoma cells, which were grown in cell culture, were implanted subcutaneously in the flank of female NMRI nude mice. […] The study was terminated as soon as the tumors in one of the groups reached a size of approx. 150 mm^2.
(§1) The growth-inhibiting effect of the compounds was tested in the HeLa-MaTu cervical tumor model as xenograft on NMRI nude mice. […] Treatment of the established tumors was begun on day 4 after inoculation of the tumors.
as §1, §1
The study was designed for determining the initial response of a human cervical carcinoma xenograft model to treatments with the 5-Br comparative substance V12. The growth-inhibiting effect of the compounds was tested in the HeLa-MaTu cervical tumor model as xenograft on NMRI nude mice. V12 was dissolved completely in the solubilizer 40% polyethylene glycol 400 (PEG 400)/60% water to a final concentration of 0.7 mg/ml (group 2), 0.85 mg/ml (group 3), or 1.0 mg/ml (group 4). Treatment of the established tumors was begun on day 4 after inoculation of the tumors.
HeLa-MaTu (EPO-GmbH, Berlin) human cervical carcinoma cells, which were grown in cell culture, were implanted subcutaneously in the flank of female NMRI nude mice. […] The study was terminated as soon as the tumors in one of the groups reached a size of approx. 160 mm^2.
(§2) The growth-inhibiting effect of the compounds was tested in the HeLa-MaTu cervical tumor model as xenograft on NMRI nude mice. […] Treatment of the established tumors was begun on day 5 after inoculation of the tumors.
as §2, §2
The following test groups were used: • Group 1: Control, treatment with solubilizer (40% PEG 400/60% water) • Group 2: Compound according to WO 2005/037800 prepared according to preparation V14 disclosed above • (6 mg/kg, oral, 2x daily on day 5, 6, 12, 13, 19, 20) • Group 3: Compound according to WO 2005/037800 prepared according to preparation V14 disclosed above • (8 mg/kg, oral, 2× daily on day 5, 6, 12, 13, 19, 20) • Group 4: Compound according to WO 2005/037800 prepared according to preparation V14 disclosed above • (10 mg/kg, oral, 2× daily on day 5, 6, 12, 13, 19, 20)
The study was designed for determining the initial response of a human cervical carcinoma xenograft model to treatments with the 5-Br comparative substance V14. The growth-inhibiting effect of the compounds was tested in the HeLa-MaTu cervical tumor model as xenograft on NMRI nude mice. V14 was dissolved completely in the solubilizer 40% polyethylene glycol 400 (PEG 400)/60% water to a final concentration of 0.6 mg/ml (group 2), 0.8 mg/ml (group 3), or 1.0 mg/ml (group 4). Treatment of the established tumors was begun on day 5 after inoculation of the tumors.

For data set [2], the system named is HeLa-MaTu cervical carcinoma cells. The data set is described as follows: Proliferation assay (Assay 4), crystal violet staining. The following applies: Homo sapiens, 96 h, 4 days incubation; read-out: HeLa-MaTu (Assay 4) Concentration for 50% inhibition of cellular proliferation, IC50. It is filed as cell-based. The protocol:
10.4 Assay 4: Proliferation Assay
Cultivated human HeLa-MaTu cervical carcinoma cells (obtained from EPO-GmbH, Berlin) were plated at a density of 3000 cells/measuring point in a 96-well multititer is plate in 200 μl of growth medium (DMEM/HAMS F12, 2 mM L-glutamine, 10% fetal calf serum). After 24 hours the cells of one plate (zero-point plate) were stained with crystal violet (see below), whereas the medium of the other plates was replaced with fresh culture medium (200 μl), to which the test substances had been added at various concentrations (0 μM, and in the range 0.01-30 μM; the final concentration of the solvent dimethylsulfoxide was 0.5%). The cells were incubated for 4 days in the presence of the test substances. Cellular proliferation was determined by staining the cells with crystal violet: the cells were fixed by adding 20 μl/measuring point of an 11% glutaraldehyde solution for 15 min at room temperature. After washing the fixed cells with water three times, the plates were dried at room temperature. The cells were stained by adding 100 μl/measuring point of a 0.1% crystal violet solution (pH adjusted to pH3 by adding acetic acid). After washing the stained cells with water three times, the plates were dried at room temperature. The dye was dissolved by adding 100 μl/measuring point of a 10% acetic acid solution. The extinction was determined photometrically at a wavelength of 595 nm. The percentage change in cell growth was calculated by standardization of the measured values to the extinction values of the zero-point plate (=0%) and the extinction of the untreated (0 μM) cells (=100%). The measured data were standardized to 0% inhibition (cell proliferation without inhibitor) and 100% inhibition (zero-point plate). The IC50 values were determined by means of a 4-parameter fit using the company's own software.

Another data set deals with T1, CDK2/CycE (Homo sapiens, UniProt P24941).
T1 construct: purchased ProQinase GmbH, Freiburg; host or cells: baculovirus-infected insect cells (Sf9)
The data set is described as follows: CDK2/CycE kinase assay (Assay 2). As to conditions: 0.5 μM ATP, histon IIIS substrate; read-out: CDK2/CycE (Assay 2) Concentration for 50% inhibition of enzyme activity, IC50. It is filed as biochemical. Here is the method: 10.2 Assay 2: CDK2/CycE Kinase Assay
Recombinant CDK2 and CycE-GST fusion proteins, purified from baculovirus-infected insect cells (Sf9), were purchased from ProQinase GmbH, Freiburg. Histon IIIS, used as kinase substrate, was purchased from the company Sigma. CDK2/CycE (50 ng/measuring point) was incubated for 10 min at 22° C. in the presence of various concentrations of test substances (0 μM, and within the range 0.01-100 μM) in assay buffer [50 mM Tris/HCl pH8.0, 10 mM MgCl2, 0.1 mM Na ortho-vanadate, 1.0 mM dithiothreitol, 0.5 μM adenosine triphosphate (ATP), 10 μg/measuring point histon IIIS, 0.2 μCi/measuring point ^33P-gamma ATP, 0.05% NP40, 1.25% dimethylsulfoxide]. The reaction was stopped by adding EDTA solution (250 mM, pH8.0, 15 μl/measuring point).
(§3) From each reaction mixture, 15 μl was applied to P30 filter strips (from Wallac), and unincorporated ^33P-ATP was removed by washing the filter strips three times, for 10 min each time, in 0.5% phosphoric acid. After drying the filter strips for 1 hour at 70° C., the filter strips were covered with scintillator strips (MeltiLex™ A, from Wallac) and stoved for 1 hour at 90° C. The amount of incorporated ^33P (substrate phosphorylation) was determined by scintillation measurement in a gamma-radiation measuring instrument (Wallac). The measured data were standardized to 0% inhibition (enzyme reaction without inhibitor) and 100% inhibition (all assay components except enzyme). The IC50 values were determined by means of a 4-parameter fit using the company's own software.

A further data set concerns the target T2, CDK1/CycB (Homo sapiens, UniProt P06493).
T2 construct: purchased ProQinase GmbH, Freiburg; host or cells: baculovirus-infected insect cells (Sf9)
Nature of the data set: CDK1/CycB kinase assay (Assay 1). It is filed as biochemical. The following applies: 0.5 μM ATP, histon IIIS substrate; read-out: CDK1/CycB (Assay 1) Concentration for 50% inhibition of enzyme activity, IC50. Here is the method:
10.1 Assay 1: CDK1/CycB Kinase Assay
Recombinant CDK1 and CycB-GST fusion proteins, purified from baculovirus-infected insect cells (Sf9), were purchased from ProQinase GmbH, Freiburg. The histon IIIS used as kinase substrate is commercially available from the company Sigma.
CDK1/CycB (200 ng/measuring point) was incubated for 10 min at 22° C. in the presence of various concentrations of test substances (0 μM, and within the range 0.01-100 μM) in assay buffer [50 mM Tris/HCl pH8.0, 10 mM MgCl2, 0.1 mM Na ortho-vanadate, 1.0 mM dithiothreitol, 0.5 μM adenosine triphosphate (ATP), 10 μg/measuring point histon IIIS, 0.2 μCi/measuring point ^33P-gamma ATP, 0.05% NP40, 1.25% dimethylsulfoxide]. The reaction was stopped by adding EDTA solution (250 mM, pH8.0, 15 μl/measuring point).
as §3

The mark [3] stands for this setting: 2.5 mg/kg (group 4), 2x daily on day 5, 6, 12, 13, 19, 20, day 20.
Where [4] appears, read: 1.5, 2.0, 2.5 mg/kg, 2x daily on day 5, 6, 12, 13, 19, 20.
Setting [5] is: Mus musculus, 480 h, 2.5 mg/kg (group 4), 2x daily on day 5, 6, 12, 13, 19, 20, day 20, read-out: treatment/control ratio T/C (tumor weight).

Read-outs that look alike come from different tables or passages of the source.

T2 sequence (P06493 whole entry): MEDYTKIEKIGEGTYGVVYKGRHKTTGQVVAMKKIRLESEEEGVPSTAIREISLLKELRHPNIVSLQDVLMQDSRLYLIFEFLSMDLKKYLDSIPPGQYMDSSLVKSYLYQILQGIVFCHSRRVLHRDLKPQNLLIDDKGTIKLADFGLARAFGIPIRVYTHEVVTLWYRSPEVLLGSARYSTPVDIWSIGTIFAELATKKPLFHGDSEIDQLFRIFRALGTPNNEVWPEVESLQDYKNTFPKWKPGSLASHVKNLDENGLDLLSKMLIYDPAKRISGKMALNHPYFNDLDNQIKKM
T2 sequence (P14635 whole entry partner): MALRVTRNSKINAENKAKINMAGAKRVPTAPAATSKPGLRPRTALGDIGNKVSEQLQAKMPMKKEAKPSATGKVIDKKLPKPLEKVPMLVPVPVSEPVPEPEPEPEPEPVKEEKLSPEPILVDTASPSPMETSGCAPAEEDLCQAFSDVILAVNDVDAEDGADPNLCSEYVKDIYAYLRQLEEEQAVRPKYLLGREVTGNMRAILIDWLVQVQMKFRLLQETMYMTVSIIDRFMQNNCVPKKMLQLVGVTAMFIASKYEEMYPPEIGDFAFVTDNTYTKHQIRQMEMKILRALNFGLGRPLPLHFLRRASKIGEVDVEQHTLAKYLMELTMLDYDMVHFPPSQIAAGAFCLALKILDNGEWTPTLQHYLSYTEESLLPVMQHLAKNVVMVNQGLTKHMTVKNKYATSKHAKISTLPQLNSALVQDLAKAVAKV

As to `C[C@@H](O)[C@@H](C)Oc1nc(Nc2ccc(S(=N)(=O)C3CC3)cc2)ncc1C(F)(F)F` (mixture of isomers) [Example 1-SI-2, (RS)-S-Cyclopropyl-S-(4-{[4-{[(1R,2R)-2-hydroxy-1-methylpropyl]oxy}-5-(trifluoromethyl)pyrimidin-2-yl]amino}phenyl)sulfoximide], the “reduction of tumor weight at the end of the study to % of the control group” value (“reduction … to % of the control group” for short) in data set [1] (setting [3]) was determined as 19%. The “effect on tumor growth (in words)” value in data set [1] (setting [4]) is on record as “dose-dependent inhibition of tumor growth”. Further, the response vs control in vivo at 2.5 mg/kg in data set [1] (setting [5]) came to 19%.
With `C[C@@H](O)[C@@H](C)Oc1nc(Nc2ccc(S(C)(=N)=O)cc2)ncc1C(F)(F)F` (mixture of isomers) [Example 2-SI-2, (RS)-S-(4-{[4-{[(1R,2R)-2-Hydroxy-1-methylpropyl]oxy}-5-(trifluoromethyl)pyrimidin-2-yl]amino}phenyl)-S-methylsulfoximide], in data set [1] (setting [3]), the “reduction … to % of the control group” value was 18%. Further, the “effect on tumor growth (in words)” value in data set [1] (setting [4]) was “dose-dependent inhibition of tumor growth”. Besides, the response vs control in vivo at 2.5 mg/kg in data set [1] (setting [5]) came out at 18%. In addition, the IC50 in data set [2] was determined as 8 nM.
`C[C@@H](Nc1nc(Nc2ccc(S(=N)(=O)C3CC3)cc2)ncc1C(F)(F)F)C(C)(C)O` (mixture of isomers) [Example 5-SI-2, (RS)-S-Cyclopropyl-S-(4-{[4-{[(R)-2-hydroxy-1,2-dimethylpropyl]amino}-5-(trifluoromethyl)pyrimidin-2-yl]amino}phenyl)sulfoximide]: the “effect on tumor growth (in words)” value in data set [1] (5 mg/kg, 2x daily on day 4, 5, 11, 12) was “greatly inhibited tumor growth”. Further, the “reduction … to % of the control group” value in data set [1] (5 mg/kg, 2x daily on day 4, 5, 11, 12, day 17) was 7%. Further, the response vs control in vivo at 5 mg/kg in data set [1] (Mus musculus, 408 h, 5 mg/kg, 2x daily on day 4, 5, 11, 12, day 17, read-out: treatment/control ratio T/C (tumor weight)) stood at 7%.
For `CCS(=N)(=O)c1ccc(Nc2ncc(C(F)(F)F)c(N[C@H](C)[C@@H](C)O)n2)cc1` (mixture of isomers) [Example 6-SI-1, (RS)-S-Ethyl-S-(4-{[4-{[(1R,2R)-2-hydroxy-1-methylpropyl]amino}-5-(trifluoromethyl)pyrimidin-2-yl]amino}phenyl)sulfoximide], the IC50 in data set [2] came out at 16 nM.
For the compound `CCS(=N)(=O)c1ccc(Nc2ncc(C(F)(F)F)c(N[C@H](C)[C@@H](C)O)n2)cc1` (mixture of isomers) [Example 6-SI-2, (RS)-S-Ethyl-S-(4-{[4-{[(1R,2R)-2-hydroxy-1-methylpropyl]amino}-5-(trifluoromethyl)pyrimidin-2-yl]amino}phenyl)sulfoximide], the “reduction … to % of the control group” value in data set [1] (5 mg/kg (group 4), 2x daily on day 4, 5, 11, 12, 17, 18, day 20) was 8%. Besides, the “effect on tumor growth (in words)” value in data set [1] (3, 4, 5 mg/kg, 2x daily on day 4, 5, 11, 12, 17, 18) was “dose-dependent inhibition of tumor growth”. Moreover, the response vs control in vivo at 5 mg/kg in data set [1] (Mus musculus, 480 h, 5 mg/kg (group 4), 2x daily on day 4, 5, 11, 12, 17, 18, day 20, read-out: treatment/control ratio T/C (tumor weight)) was 8%.
For the compound `C[C@@H](Nc1nc(Nc2ccc(S(C)(=N)=O)cc2)ncc1C(F)(F)F)C(C)(C)O` (single isomer, unassigned) [Example 9-SI-1], the IC50 on CDK2/CycE came to 5 nM.
The same measure, in the same setting: under `C[C@@H](Nc1nc(Nc2ccc(S(C)(=N)=O)cc2)ncc1C(F)(F)F)C(C)(C)O` (single isomer, unassigned) [Example 9-SI-2] stands 3 nM.
`C[C@@H](Nc1nc(Nc2ccc([S@](=N)(=O)C3CC3)cc2)ncc1Br)C(C)(C)O` [Example V11, (R)-S-[4-({5-bromo-4-[(R)-(2-hydroxy-1,2-dimethylpropyl)amino]pyrimidin-2-yl}amino)phenyl]-S-cyclopropyl-sulfoximide]: the IC50 on CDK1/CycB was found to be 8 nM; at CDK2/CycE it was 7 nM; in data set [2], 13 nM. Further, in data set [1] (8 mg/kg, 2x daily on 2 successive days followed by 5 treatment-free days), the “tolerability of the cyclic treatment regimen” value was “well-tolerated”. Besides, the “effect on tumor growth (in words)” value in data set [1] (8 mg/kg, 2x daily on day 4, 5, 11, 12) is reported as “inhibited tumor growth”. Besides, in data set [1] (8 mg/kg, 2x daily on day 4, 5, 11, 12, day 17), the “reduction … to % of the control group” value stood at 39%. For the same compound, the response vs control in vivo at 8 mg/kg in data set [1] (Mus musculus, 408 h, 8 mg/kg, 2x daily on day 4, 5, 11, 12, day 17, read-out: treatment/control ratio T/C (tumor weight)) stood at 39%.
